In brackets after ≈: the same amount, converted by molar mass.
Legend:
[1] = Inhibition of ribosomal activity in erythromycin-sensitive Escherichia coli BL21 S30 extracts assessed as inhibition of luciferase activity by transcriptional and translational assay; format: subcellular, Ribosome
Bacterial 70S ribosome [2] = experiment: Inhibition of ribosomal activity in erythromycin-sensitive Escherichia coli BL21 assessed as luciferase production by transcriptional and translational assay; format: subcellular
[3] = target: Bacterial 70S ribosome (Bacteria) (UniProt P0A7V0+P60723+P0AG67+P0A7R5+P0A7R9+P0A7S3+P0A7S9+P0AG59+P0ADZ4+P0A7T3+P0AG63+P0A7T7+P0A7U3+P0A7U7+P68679+P0A7V3+P0A7V8+P0A7W1+P02358+P02359+P0A7W7+P0A7X3+P0A7J3+P0A7J7+P0AA10+P0ADY3+P02413+P0ADY7+P0AG44+P0C018+P0A7K6+P0A7L0+P0A7L3+P0AG48+P61175+P0ADZ0+P60624+P68919+P0A7L8+P0A7M2+P0A7M6+P60422+P0AG51+P0A7N1+P0A7M9+P0A7N4+P0A7N9+P0A7P5+P0A7Q1+Q2EEQ2+P0A7Q6+P60438+P62399+P0AG55+P0A7K2); experiment: (§1) Inhibition of ribosomal activity in erythromycin-resistant Propionibacterium acnes GE4E carrying Erm(X) gene assessed as luciferase production by transcriptional and translational assay; format: subcellular; conditions: Cutibacterium acnes, concentration not given here
Bacterial 70S ribosome [4] = experiment: as §1; format: subcellular, Cutibacterium acnes
Bacterial 70S ribosome [5] = experiment: Displacement of [14C]ERY from erythromycin-sensitive Escherichia coli BL21 ribosome; format: subcellular
Bacterial 70S ribosome [6] = experiment: Inhibition of ribosomal activity in erythromycin-resistant Propionibacterium acnes SW54EA with A2058G mutation in domain V of 23S rRNA assessed as luciferase production by transcriptional and translational assay; format: subcellular, Cutibacterium acnes
Bacterial 70S ribosome [7] = experiment: Inhibition of ribosomal activity in erythromycin-resistant Propionibacterium acnes P95 with G2057A mutation in domain V of 23S rRNA assessed as luciferase production by transcriptional and translational assay; format: subcellular, Cutibacterium acnes
Bacterial 70S ribosome [8] = experiment: Inhibition of ribosomal activity in erythromycin-sensitive Propionibacterium acnes EG7NS assessed as luciferase production by transcriptional and translational assay; format: subcellular, Cutibacterium acnes
Cutibacterium acnes [9] = experiment: Antibacterial activity against erythromycin-resistant Propionibacterium acnes P95 with 23S rRNA G2057A mutant; format: functional
Cutibacterium acnes [10] = experiment: Antibacterial activity against erythromycin-resistant Propionibacterium acnes GE4E carrying Erm(X) gene; format: functional
Bacterial 70S ribosome [11] = experiment: Displacement of [14C]ERY from ribosome in erythromycin-resistant Propionibacterium acnes P95 with G2057A mutation in domain V of 23S rRNA; format: subcellular, Cutibacterium acnes
Cutibacterium acnes [12] = experiment: Antibacterial activity against erythromycin-resistant Propionibacterium acnes with G2057A mutation in domain V of 23S rRNA; format: functional
Cutibacterium acnes [13] = experiment: Antibacterial activity against erythromycin-resistant Propionibacterium acnes with A2059 mutation in domain V of 23S rRNA; format: functional
Cutibacterium acnes [14] = experiment: Antibacterial activity against erythromycin-resistant Propionibacterium acnes with A2058G mutation in domain V of 23S rRNA; format: functional
Bacterial 70S ribosome [15] = experiment: Displacement of [14C]ERY from erythromycin-sensitive Propionibacterium acnes EG7NS ribosome; format: subcellular, Cutibacterium acnes
Cutibacterium acnes [16] = experiment: Antibacterial activity against erythromycin-sensitive Propionibacterium acnes EG7NS; format: functional
Escherichia coli = experiment: Antibacterial activity against Escherichia coli BL21; format: functional
Cutibacterium acnes [17] = experiment: Antibacterial activity against erythromycin-resistant Propionibacterium acnes SW54EA with 23S rRNA A2058G mutant; format: functional

| SMILES | IC50 [1] | IC50 (Bacterial 70S ribosome [2]) | inhibition [3] | IC50 (Bacterial 70S ribosome [4]) | Kd (Bacterial 70S ribosome [5]) | IC50 (Bacterial 70S ribosome [6]) | IC50 (Bacterial 70S ribosome [7]) | IC50 (Bacterial 70S ribosome [8]) | MIC (Cutibacterium acnes [9]) | MIC (Cutibacterium acnes [10]) | Kd (Bacterial 70S ribosome [11]) | MIC (Cutibacterium acnes [12]) | MIC (Cutibacterium acnes [13]) | MIC (Cutibacterium acnes [14]) | Kd (Bacterial 70S ribosome [15]) | MIC (Cutibacterium acnes [16]) | MIC (Escherichia coli) | MIC (Cutibacterium acnes [17]) |
| --- | --- | --- | --- | --- | --- | --- | --- | --- | --- | --- | --- | --- | --- | --- | --- | --- | --- | --- |
| CC[C@H]1OC(=O)[C@H](C)[C@@H](O[C@H]2C[C@@](C)(OC)[C@@H](O)[C@H](C)O2)[C@H](C)[C@@H](O[C@@H]2O[C@H](C)C[C@H](N(C)C)[C@H]2O)[C@](C)(OC)C[C@@H](C)C(=O)[C@H](C)[C@H]2[C@H](SCCn3cnc4cccnc43)C(=O)O[C@@]21C | 850 nM | 420 nM | 48% | 190 nM | 26 nM | 260 nM | 120 nM | 110 nM |  |  |  |  |  |  |  |  |  |  |
| CC[C@H]1OC(=O)[C@H](C)[C@@H](O[C@H]2C[C@@](C)(OC)[C@@H](O)[C@H](C)O2)[C@H](C)[C@@H](O[C@@H]2O[C@H](C)C[C@H](N(C)C)[C@H]2O)[C@](C)(O)C[C@@H](C)C(=O)[C@H](C)[C@@H](O)[C@]1(C)O [ERYTHROMYCIN] | 2130 nM | 760 nM | 52% | 1900 nM | 11 nM | 87000 nM | 2200 nM | 170 nM | 4 µg/mL (≈ 5.45 µM) | > 512 µg/mL | > 2100 nM | 1 µg/mL (≈ 1.36 µM) | > 128 µg/mL | > 128 µg/mL | 29 nM | ≤ 0.06 µg/mL | 128 µg/mL (≈ 174 µM) | > 512 µg/mL |
